Consider 28 molecules from publication PMC12624955, “Exploring diarylheptanoid derivatives to target LIMK1 as potential agents against colorectal cancer” (Journal of Enzyme Inhibition and Medicinal Chemistry, 2025).

A word on the IC50: it is the concentration that inhibits the measured activity by half. By inhibition is commonly meant the drop in the measured response relative to a control, in per cent. The GI50 is the concentration at which growth is held to half of that of the control. Read a high GI50 as less potent growth inhibition.

T1 sequence (P53667 whole entry): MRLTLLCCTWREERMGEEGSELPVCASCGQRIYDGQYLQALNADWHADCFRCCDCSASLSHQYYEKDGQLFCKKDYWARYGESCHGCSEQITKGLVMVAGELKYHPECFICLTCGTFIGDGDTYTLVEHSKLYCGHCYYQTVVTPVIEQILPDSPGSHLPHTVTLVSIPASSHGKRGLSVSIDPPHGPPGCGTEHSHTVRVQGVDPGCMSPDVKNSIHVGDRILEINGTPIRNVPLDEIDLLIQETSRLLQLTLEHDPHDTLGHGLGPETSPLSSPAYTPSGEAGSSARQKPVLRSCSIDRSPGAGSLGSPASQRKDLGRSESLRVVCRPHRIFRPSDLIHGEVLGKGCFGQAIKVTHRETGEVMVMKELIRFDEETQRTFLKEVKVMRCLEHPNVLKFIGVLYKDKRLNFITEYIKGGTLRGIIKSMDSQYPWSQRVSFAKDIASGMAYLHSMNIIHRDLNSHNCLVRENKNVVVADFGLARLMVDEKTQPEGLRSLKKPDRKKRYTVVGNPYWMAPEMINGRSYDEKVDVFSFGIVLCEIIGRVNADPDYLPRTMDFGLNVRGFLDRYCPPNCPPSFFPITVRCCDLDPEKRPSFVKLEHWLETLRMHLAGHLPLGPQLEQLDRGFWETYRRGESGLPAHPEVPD

The first experiment addresses T1, LIMK1 (Homo sapiens, UniProt P53667).
T1 construct: purchased Thermo Fisher Scientific (SelectScreen Kinase assay service)
The experiment in a line: LanthaScreen Eu kinase binding assay (SelectScreen), LIMK1 inhibition.
Conditions: not given
The procedure:
The inhibitory activities of the compounds against kinases were tested using the SelectScreen Kinase assay from Thermo Fisher Scientific in Waltham, MA, USA. The LanthaScreen Eu kinase binding assay was used to validate the LIMK1 inhibition activity of the compounds, and was performed according to the manufacturer’s protocol (https://www.thermofisher.com/tw/zt/home/industrial/pharma-biopharma/drug-discovery-development/target-and-lead-identification-and-validation/kinasebiology/kinase-activity-assays/lanthascreentm-eu-kinase-binding-assay/lanthascreen-eu-kinase-binding-assay-validation-table.html). This endpoint assay quantifies inhibitor binding through the displacement of a fluorescently labelled ATP-competitive tracer from LIMK1. A mixture of the 100× compounds, 2× LIMK1/antibody mixture (Eu-anti-His), 4× tracer 236, and kinase buffer were mixed sequentially. After incubation at room temperature for 1 h, the mixture was analysed using a fluorescence plate reader. The kinase inhibition assay results were expressed as the average of two replicates.
`COCOc1cccc2c1ccn2CCCCC(=O)/C=C/c1ccc(O)c(O)c1` [Compound 15, (E)-1-(3,4-dihydroxyphenyl)-7-(4-(methoxymethoxy)-1H-indol-1-yl)hept-1-en-3-one]: the IC50 worked out at 1.88 µM.
The same measure, in the same setting: for `O=C(/C=C/c1ccc(O)c(O)c1)CCCCn1ccc2ccccc21` [Compound 18, (E)-1-(3,4-dihydroxyphenyl)-7-(1H-indol-1-yl)hept-1-en-3-one] the value was 1.49 µM.
Turning to `O=C(/C=C/c1ccc(O)c(O)c1)CCCCc1cccc(O)c1` [Compound 7b, 1-(3.4-Dihydroxyphenyl)-7-(3-hydroxyphenyl)hept-1-en-3-one], the IC50 turned out to be 1.11 µM.
Still for that read-out and setting: the same measure for `O=C(/C=C/c1ccc(O)c(O)c1)CCCCn1ccc2ccc(O)cc21` [Compound 13b, (E)-1-(3.4-dihydroxyphenyl)-7-(6-hydroxy-1H-indol-1-yl)hept-1-en-3-one]: 1.39 µM; for `O=C(/C=C/c1ccc(O)c(O)c1)CCCCc1ccccc1O` [Compound 7a, 1-(3.4-Dihydroxyphenyl)-7-(2-hydroxyphenyl)hept-1-en-3-one]: 1.77 µM; for `O=C(/C=C/c1ccc(O)c(O)c1)CCCCc1ccc(O)cc1` [Compound 7c, 1-(3.4-Dihydroxyphenyl)-7-(4-hydroxyphenyl)hept-1-en-3-one]: 1.09 µM.
`O=C(/C=C/c1cc(O)c(O)c(O)c1)CCCCc1ccccc1` [Compound XV] registered an IC50 of 0.57 µM.
Same read-out and setting: the same measure for `O=C(/C=C/c1ccc(O)c(O)c1)CCCCc1ccccc1` [Compound I]: 1.59 µM.

The experiment is the same for the next values; noted with them: as printed in text.
Molecule `O=C(/C=C/c1cc(O)c(O)c(O)c1)CCCCc1ccccc1` [Compound XV] returned an IC50 of 0.569 µM.

The experiment is the same for the next values; noted with them: compound at 10 μM, average of two replicates, read-out: Inhibition percentage at 10 μM.
Take `O=C(/C=C/c1ccc(O)c(O)c1)CCc1ccccc1` [Compound V]: the inhibition at 10 µM amounted to 68%.
Still for that read-out and setting: for `O=C(/C=C/c1ccc(O)c(O)c1)CCCc1ccccc1` [Compound VI] the value was 82%.
As for `COCOc1cccc2c1ccn2CCCCC(=O)/C=C/c1ccc(O)c(O)c1` [Compound 15, (E)-1-(3,4-dihydroxyphenyl)-7-(4-(methoxymethoxy)-1H-indol-1-yl)hept-1-en-3-one], the inhibition at 10 µM came to 106%.
On the same count and under the same terms, the same measure for `COc1cc(/C=C/C(=O)CCCCc2ccccc2)ccc1O` [XIV]: 1%.
Same read-out and setting: for `O=C(/C=C/c1ccc(O)c(O)c1)CCCCn1ccc2ccccc21` [Compound 18, (E)-1-(3,4-dihydroxyphenyl)-7-(1H-indol-1-yl)hept-1-en-3-one] the value was 110%.
The same measure, in the same setting: the same measure for `O=C(/C=C/c1ccc(O)c(F)c1)CCCCc1ccccc1` [Compound X]: no more than 0%; for `O=C(CCCCc1ccccc1)CCc1ccc(O)c(O)c1` [II]: 30%.
For the molecule `O=C(/C=C/c1ccc(O)c(O)c1)CCCCc1cccc(O)c1` [Compound 7b, 1-(3.4-Dihydroxyphenyl)-7-(3-hydroxyphenyl)hept-1-en-3-one], the inhibition at 10 µM was determined as 102%.
Still for that read-out and setting: the same measure for `O=C(/C=C/c1ccc(O)cc1)CCCCc1ccccc1` [VIII]: no more than 0%; for `O=C(CCCCn1ccc2c(O)cccc21)CCc1ccc(O)c(O)c1` [Compound 14a, 1-(3,4-Dihydroxyphenyl)-7-(4-hydroxy-1H-indol-1-yl)heptan-3-one]: 51%; for `O=C(CCCCn1ccc2ccccc21)CCc1ccc(O)c(O)c1` [Compound 19, 1-(3,4-Dihydroxyphenyl)-7-(1H-indol-1-yl)heptan-3-one]: 28%.
Still for that read-out and setting: the same measure for `O=C(/C=C/c1ccc(O)c([N+](=O)[O-])c1)CCCCc1ccccc1` [XIII]: 7%; for `O=C(/C=C/c1ccc(O)c(O)c1)CCCCn1ccc2ccc(O)cc21` [Compound 13b, (E)-1-(3.4-dihydroxyphenyl)-7-(6-hydroxy-1H-indol-1-yl)hept-1-en-3-one]: 106%.
Turning to `O=C(/C=C/c1ccc(O)c(O)c1)CCCCc1ccccc1O` [Compound 7a, 1-(3.4-Dihydroxyphenyl)-7-(2-hydroxyphenyl)hept-1-en-3-one], the inhibition at 10 µM came out at 89%.
Take `O=C(/C=C/c1ccc(O)c(O)c1)CCCCc1ccc(O)cc1` [Compound 7c, 1-(3.4-Dihydroxyphenyl)-7-(4-hydroxyphenyl)hept-1-en-3-one]: the inhibition at 10 µM is 106%.
The same measure, in the same setting: the same measure for `O=C(CCCCc1ccccc1O)CCc1ccc(O)c(O)c1` [Compound 8a, 1-(3.4-Dihydroxyphenyl)-7-(2-hydroxyphenyl)heptan-3-one]: 37%.
As for `O=C(/C=C/c1ccc(O)c(O)c1)c1ccccc1` [III], the inhibition at 10 µM was 84%.
On the same count and under the same terms, for `O=C(CCCCn1ccc2ccc(O)cc21)CCc1ccc(O)c(O)c1` [Compound 14b, 1-(3,4-Dihydroxyphenyl)-7-(6-hydroxy-1H-indol-1-yl)heptan-3-one] the value was 53%; for `O=C(CCCCc1cccc(O)c1)CCc1ccc(O)c(O)c1` [Compound 8b, 1-(3.4-Dihydroxyphenyl)-7-(3-hydroxyphenyl)heptan-3-one], 34%; for `O=C(/C=C/c1ccccc1)CCCCc1ccccc1` [Compound VII], no more than 0%.
Turning to `O=C(CCCCc1ccc(O)cc1)CCc1ccc(O)c(O)c1` [Compound 8c, 1-(3.4-Dihydroxyphenyl)-7-(4-hydroxyphenyl)heptan-3-one], the inhibition at 10 µM came to 47%.
Regarding `O=C(/C=C/c1ccc(O)c(Br)c1)CCCCc1ccccc1` [XII], the inhibition at 10 µM stood at 1%.
Turning to `O=C(/C=C/c1cc(O)c(O)c(O)c1)CCCCc1ccccc1` [Compound XV], the inhibition at 10 µM is 112%.
Still for that read-out and setting: for `O=C(/C=C/c1cccc(O)c1)CCCCc1ccccc1` [IX] the value was no more than 0%.
Still for that read-out and setting: the same measure for `O=C(/C=C/c1ccc(O)c(O)c1)CCCCc1ccccc1` [Compound I]: 101%.
Same read-out and setting: the same measure for `O=C(/C=C/c1ccc(O)c(Cl)c1)CCCCc1ccccc1` [XI]: 4%; for `O=C(/C=C/c1ccc(O)c(O)c1)Cc1ccccc1` [IV]: 56%.

For the next experiment, the system named is HCT-116. The experiment in a line: MTT assay (cell viability). The class given is cell-based. To be noted: Homo sapiens, 72 h, mean ± SD. The procedure:
(§1) Colorectal cell line, HCT-116, was purchased from the Bioresource Collection and Research Centre (BCRC, Hsinchu, Taiwan), while HT-29 was obtained from the American Type Culture Collection (ATCC, Manassas, VA, USA). Both cell lines were maintained in McCoy’s 5 A medium (with L-glutamine and 2.2 g/L NaHCO3, M4892, Sigma) supplemented with 10% foetal bovine serum (Corning Incorporated, NY, USA) and 1% penicillin–streptomycin–amphotericin B (100 unit/ml penicillin G, 0.1 mg/ml streptomycin sulphate, 0.25 μg/ml amphotericin B, Corning Incorporated, NY, USA). All cultures were maintained in a humidified incubator at 37 °C with 5% CO2.
(§2) Cells were seeded in 96-well plates at a density of 3 × 10^3 cells/well in 100 μl of culture medium and treated with compounds at the indicated concentrations (0.3, 1, 3, 10, and 30 μM) for 72 h. Following treatment, the 3-(4,5-dimethylthiazol-2-yl)-2,5-diphenyltetrazolium bromide (MTT) solution (5 mg/ml in Phosphate-buffered saline (PBS)) was added to each well to reach a final concentration of 0.5 mg/ml, and the cells were incubated at 37 °C for 1 h. The resulting formazan crystal was dissolved in 100 µl of DMSO, and the absorbance was measured at 550 nm using an ELISA reader (Molecular Device, Sunnyvale, CA, USA).
On the technique in general: Tetrazolium dyes change colour on reduction, which living cells bring about.
`O=C(/C=C/c1cc(O)c(O)c(O)c1)CCCCc1ccccc1` [Compound XV] returned an IC50 greater than 30 µM.

The test system of another experiment is HT-29. The experiment in a line: MTT assay (cell viability). The class given is cell-based. To be noted: Homo sapiens, 72 h, mean ± SD. The procedure:
as §1, §2
In turn, `O=C(/C=C/c1cc(O)c(O)c(O)c1)CCCCc1ccccc1` [Compound XV] displayed an IC50 greater than 30 µM.

For the next experiment, the system named is HCT-116. Nature of the experiment: Sulforhodamine B assay (cell proliferation). The class given is cell-based. The note with it: Homo sapiens, SRB assay, 72 h, mean ± SD. The procedure: as §1
(§3) Cells were seeded in 96-well plates at a density of 3 × 10^3 cells/well in 100 μl of culture medium and treated with compounds at the indicated concentrations for 72 h. After treatment, cells were fixed with 10% trichloroacetic acid for 20 min and washed with H2O. The cells were then stained with 0.4% sulforhodamine B (SRB) in 1% acetic acid for 20 min, followed by two washes with 1% acetic acid. After the well-dried, the protein-bound dye was dissolved in 100 µl of 10 mM Tris base solution, and the absorbance was measured at 515 nm using an ELISA reader (Molecular Device, Sunnyvale, CA, USA).
With `O=C(/C=C/c1cc(O)c(O)c(O)c1)CCCCc1ccccc1` [Compound XV], the GI50 was greater than 30 µM.

The experiment is the same for the next values; noted with them: concentration of 30 µM.
For `O=C(/C=C/c1cc(O)c(O)c(O)c1)CCCCc1ccccc1` [Compound XV], the “growth inhibition of HCT-116 cells” value was “did not inhibit the growth”.

Another experiment relates to HT-29. Nature of the experiment: Sulforhodamine B assay (cell proliferation). To be noted: Homo sapiens, SRB assay, 72 h, mean ± SD. The class given is cell-based. The procedure: as §1, §3
Background: The SRB assay estimates cell density from bound dye.
Take `O=C(/C=C/c1cc(O)c(O)c(O)c1)CCCCc1ccccc1` [Compound XV]: the concentration for 50% growth inhibition (GI50) came out at 28.8 ± 1.8 µM.

The next experiment relates to LIMK.
Test: not given
To be noted: cited from earlier work.
On to `COc1cc(/C=C/C(=O)CC(=O)/C=C/c2ccc(O)c(OC)c2)ccc1O` [curcumin], for which the IC50 is 30 µM.
